# Laboratory results reported in ChEMBL document CHEMBL1201861, “Genomics of Drug Sensitity in Cancer screening data, Wellcome Trust Sanger Institute”.
# pIC50: −log10 of the molar value.
# Assays:
# Test in all cases: cells
# Format in all cases: functional, cell-based, Homo sapiens
# COLO-824 = details: Homo sapiens, COLO-824
# Description: SANGER: Inhibition of human COLO-824 cell growth in a cell viability assay.
# DEL = details: Homo sapiens, DEL;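 further: growth inhibition of the human DEL cell line, read out with a cell viability assay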
# Description: SANGER: Inhibition of human DEL cell growth in a cell viability assay.
# DSH1 = details: Homo sapiens, DSH1;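 further: growth inhibition of human DSH1 cells, measured with a cell viability readout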
# Description: SANGER: Inhibition of human DSH1 cell growth in a cell viability assay.
# DU-4475 = details: Homo sapiens, DU-4475
# Description: SANGER: Inhibition of human DU-4475 cell growth in a cell viability assay.
# EW-13 = details: Homo sapiens, EW-13;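 further: growth inhibition of EW-13 cells, read out with a cell viability assay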
# Description: SANGER: Inhibition of human EW-13 cell growth in a cell viability assay.
# GCIY = details: Homo sapiens, GCIY;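 further: growth inhibition of the human GCIY cell line, read out by a cell viability assay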
# Description: SANGER: Inhibition of human GCIY cell growth in a cell viability assay.
# GI-1 = details: Homo sapiens, GI-1;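 further: growth inhibition of human GI-1 cells, measured with a cell viability readout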
# Description: SANGER: Inhibition of human GI-1 cell growth in a cell viability assay.
# GOTO = details: Homo sapiens, GOTO;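 further: growth inhibition of GOTO cells, read out by a cell viability assay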
# Description: SANGER: Inhibition of human GOTO cell growth in a cell viability assay.
# HC-1 = details: Homo sapiens, HC-1;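 further: growth inhibition of HC-1 cells measured by a cell viability assay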
# Description: SANGER: Inhibition of human HC-1 cell growth in a cell viability assay.
# HCC2218 = details: Homo sapiens, HCC2218;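 further: cell viability assay read-out, with IC50 given as the concentration that inhibits growth of the cell line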
# Description: SANGER: Inhibition of human HCC2218 cell growth in a cell viability assay.
# IST-MES1 = details: Homo sapiens, IST-MES1;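 further: growth inhibition of IST-MES1 cells, measured with a cell viability assay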
# Description: SANGER: Inhibition of human IST-MES1 cell growth in a cell viability assay.
# IST-SL1 = details: Homo sapiens, IST-SL1;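 further: growth inhibition of human IST-SL1 cells, read out with a cell viability assay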
# Description: SANGER: Inhibition of human IST-SL1 cell growth in a cell viability assay.
# J-RT3-T3-5 = details: Homo sapiens, J-RT3-T3-5;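 further: cell viability assay measuring growth inhibition of human J-RT3-T3-5 cells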
# Description: SANGER: Inhibition of human J-RT3-T3-5 cell growth in a cell viability assay.
# K5 = details: Homo sapiens, K5
# Description: SANGER: Inhibition of human K5 cell growth in a cell viability assay.
# KLE = details: Homo sapiens, KLE;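 further: growth inhibition of human KLE cells, read out with a cell viability assay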
# Description: SANGER: Inhibition of human KLE cell growth in a cell viability assay.
# KP-N-YS = details: Homo sapiens, KP-N-YS;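 further: cell viability assay measuring inhibition of cell line growth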
# Description: SANGER: Inhibition of human KP-N-YS cell growth in a cell viability assay.
# KU812 cell line = details: Homo sapiens, KU812;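 further: growth inhibition of KU812 cells, read out with a cell viability assay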
# Description: SANGER: Inhibition of human KU812 cell growth in a cell viability assay.
# L-428 = details: Homo sapiens, L-428
# Description: SANGER: Inhibition of human L-428 cell growth in a cell viability assay.
# LAMA-84 = details: Homo sapiens, LAMA-84;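 further: growth inhibition of LAMA-84 cells, read out with a cell viability assay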
# Description: SANGER: Inhibition of human LAMA-84 cell growth in a cell viability assay.
# LNCaP-Clone-FGC = details: Homo sapiens, LNCaP-Clone-FGC
# Description: SANGER: Inhibition of human LNCaP-Clone-FGC cell growth in a cell viability assay.
# MMAC-SF = details: Homo sapiens, MMAC-SF;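 further: growth inhibition of human MMAC-SF cells, read out with a cell viability assay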
# Description: SANGER: Inhibition of human MMAC-SF cell growth in a cell viability assay.
# MN-60 = details: Homo sapiens, MN-60;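 further: growth inhibition of the MN-60 cell line, determined with a cell viability assay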
# Description: SANGER: Inhibition of human MN-60 cell growth in a cell viability assay.
# MZ1-PC = details: Homo sapiens, MZ1-PC;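 further: cell viability assay measuring growth inhibition of human MZ1-PC cells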
# Description: SANGER: Inhibition of human MZ1-PC cell growth in a cell viability assay.
# NB13 = details: Homo sapiens, NB13;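 further: cell viability readout measuring growth inhibition of human NB13 cells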
# Description: SANGER: Inhibition of human NB13 cell growth in a cell viability assay.
# NCI-H1355 = details: Homo sapiens, NCI-H1355;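 further: growth inhibition of human NCI-H1355 cells, read out by a cell viability assay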
# Description: SANGER: Inhibition of human NCI-H1355 cell growth in a cell viability assay.
# NCI-H1838 = details: Homo sapiens, NCI-H1838;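 further: growth inhibition of NCI-H1838 cells, determined with a cell viability readout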
# Description: SANGER: Inhibition of human NCI-H1838 cell growth in a cell viability assay.
# NCI-H2126 = details: Homo sapiens, NCI-H2126;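 further: growth inhibition of the cancer cell line, determined with a cell viability readout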
# Description: SANGER: Inhibition of human NCI-H2126 cell growth in a cell viability assay.
# NCI-H226 = details: Homo sapiens, NCI-H226;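 further: cell viability read-out used to gauge growth inhibition of the cells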
# Description: SANGER: Inhibition of human NCI-H226 cell growth in a cell viability assay.
# NCI-H510A = details: Homo sapiens, NCI-H510A;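 further: growth inhibition of NCI-H510A cells, read out with a cell viability assay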
# Description: SANGER: Inhibition of human NCI-H510A cell growth in a cell viability assay.
# NCI-H82 = details: Homo sapiens, NCI-H82;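 further: growth inhibition of NCI-H82 cells, measured with a cell viability readout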
# Description: SANGER: Inhibition of human NCI-H82 cell growth in a cell viability assay.
# SNU1 = details: Homo sapiens, SNU1;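 further: growth inhibition of human NCI-SNU-1 cells, measured with a cell viability assay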
# Description: SANGER: Inhibition of human NCI-SNU-1 cell growth in a cell viability assay.
# NH-12 = details: Homo sapiens, NH-12;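 further: growth inhibition of NH-12 cells, read out with a cell viability assay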
# Description: SANGER: Inhibition of human NH-12 cell growth in a cell viability assay.
# NKM-1 = details: Homo sapiens, NKM-1;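 further: growth inhibition of NKM-1 cells, read out with a cell viability assay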
# Description: SANGER: Inhibition of human NKM-1 cell growth in a cell viability assay.
# OMC-1 = details: Homo sapiens, OMC-1;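 further: growth inhibition of the OMC-1 cell line, measured by a cell viability assay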
# Description: SANGER: Inhibition of human OMC-1 cell growth in a cell viability assay.
# ONS-76 = details: Homo sapiens, ONS-76;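 further: growth inhibition of human ONS-76 cells, read out with a cell viability assay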
# Description: SANGER: Inhibition of human ONS-76 cell growth in a cell viability assay.
# OVCAR-4 = details: Homo sapiens, OVCAR-4;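 further: growth inhibition of human OVCAR-4 cells, measured with a cell viability assay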
# Description: SANGER: Inhibition of human OVCAR-4 cell growth in a cell viability assay.
# QIMR-WIL = details: Homo sapiens, QIMR-WIL;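 further: growth inhibition of QIMR-WIL cells, read out with a cell viability assay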
# Description: SANGER: Inhibition of human QIMR-WIL cell growth in a cell viability assay.
# RCC10RGB = details: Homo sapiens, RCC10RGB;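 further: growth inhibition of human RCC10RGB cells, read out by a cell viability assay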
# Description: SANGER: Inhibition of human RCC10RGB cell growth in a cell viability assay.
# RPMI-8866 = details: Homo sapiens, RPMI-8866
# Description: SANGER: Inhibition of human RPMI-8866 cell growth in a cell viability assay.
# SF-268 = details: Homo sapiens, SF-268;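 further: growth inhibition of SF-268 cells determined with a cell viability assay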
# Description: SANGER: Inhibition of human SF268 cell growth in a cell viability assay.
# SK-LMS-1 = details: Homo sapiens, SK-LMS-1;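 further: growth inhibition of human SK-LMS-1 cells, read out with a cell viability assay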
# Description: SANGER: Inhibition of human SK-LMS-1 cell growth in a cell viability assay.
# SNB-75 = details: Homo sapiens, SNB-75;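 further: cell viability assay measuring growth inhibition of human SNB-75 cells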
# Description: SANGER: Inhibition of human SNB75 cell growth in a cell viability assay.
# BB49-HNC = details: Homo sapiens, BB49-HNC;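 further: cell viability assay read-out, reported as inhibition of BB49-HNC cell growth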
# Description: SANGER: Inhibition of human BB49-HNC cell growth in a cell viability assay.
# Becker = details: Homo sapiens, Becker;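 further: growth inhibition of Becker cells, read out with a cell viability assay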
# Description: SANGER: Inhibition of human Becker cell growth in a cell viability assay.
# C2BBe1 = details: Homo sapiens, C2BBe1;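 further: growth inhibition of C2BBe1 cells, read out through a viability assay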
# Description: SANGER: Inhibition of human C2BBe1 cell growth in a cell viability assay.
# TE-6 = details: Homo sapiens, TE-6;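 further: growth inhibition of TE-6 cells, read out with a cell viability assay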
# Description: SANGER: Inhibition of human TE-6 cell growth in a cell viability assay.
# TGBC24TKB = details: Homo sapiens, TGBC24TKB;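 further: growth inhibition of human TGBC24TKB cells, read out with a cell viability assay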
# Description: SANGER: Inhibition of human TGBC24TKB cell growth in a cell viability assay.
# no-10 = details: Homo sapiens;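 further: growth inhibition of no-10 cells, read out with a cell viability assay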
# Description: SANGER: Inhibition of human no-10 cell growth in a cell viability assay.
# CCRF-CEM = details: Homo sapiens, CCRF-CEM;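 further: inhibition of CCRF-CEM cell growth, measured by a cell viability assay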
# Description: SANGER: Inhibition of human CCRF-CEM cell growth in a cell viability assay.
compound,measurement,setting,value
COc1cc2ncn(-c3cc(OCc4ccccc4C(F)(F)F)c(C(N)=O)s3)c2cc1OC [GW843682X],pIC50,COLO-824,< 6.59
same,pIC50,DEL,7.70
same,pIC50,DSH1,< 6.59
same,pIC50,DU-4475,7.10
same,pIC50,EW-13,< 6.59
same,pIC50,GCIY,7.32
same,pIC50,GI-1,8.14
same,pIC50,GOTO,< 6.59
same,pIC50,HC-1,7.58
same,pIC50,HCC2218,< 6.59
same,pIC50,IST-MES1,6.80
same,pIC50,IST-SL1,< 6.59
same,pIC50,J-RT3-T3-5,7.67
same,pIC50,K5,7.14
same,pIC50,KLE,6.67
same,pIC50,KP-N-YS,7.57
same,pIC50,KU812 cell line,7.07
same,pIC50,L-428,6.96
same,pIC50,LAMA-84,7.40
same,pIC50,LNCaP-Clone-FGC,< 6.59
same,pIC50,MMAC-SF,< 6.59
same,pIC50,MN-60,< 6.59
same,pIC50,MZ1-PC,7.65
same,pIC50,NB13,7.66
same,pIC50,NCI-H1355,7.92
same,pIC50,NCI-H1838,< 6.59
same,pIC50,NCI-H2126,7.17
same,pIC50,NCI-H226,< 6.59
same,pIC50,NCI-H510A,7.78
same,pIC50,NCI-H82,7.82
same,pIC50,SNU1,< 6.59
same,pIC50,NH-12,< 6.59
same,pIC50,NKM-1,6.86
same,pIC50,OMC-1,< 6.59
same,pIC50,ONS-76,7.11
same,pIC50,OVCAR-4,7.15
same,pIC50,QIMR-WIL,7.37
same,pIC50,RCC10RGB,< 6.59
same,pIC50,RPMI-8866,< 6.59
same,pIC50,SF-268,7.08
same,pIC50,SK-LMS-1,7.13
same,pIC50,SNB-75,7.01
same,pIC50,BB49-HNC,< 6.59
same,pIC50,Becker,7.22
same,pIC50,C2BBe1,< 6.59
same,pIC50,TE-6,7.75
same,pIC50,TGBC24TKB,7.35
same,pIC50,no-10,7.68
same,pIC50,CCRF-CEM,7.83
Nc1cccc2c1CN(C1CCC(=O)NC1=O)C2=O (configuration not stated) [LENALIDOMIDE],pIC50,COLO-824,< 5.30
same,pIC50,DEL,< 5.30
same,pIC50,DSH1,< 5.30
same,pIC50,DU-4475,< 5.30
same,pIC50,EW-13,< 5.30
same,pIC50,GCIY,< 5.30
same,pIC50,GI-1,< 5.30
same,pIC50,GOTO,< 5.30
same,pIC50,HC-1,< 5.30
same,pIC50,HCC2218,< 5.30
same,pIC50,IST-MES1,< 5.30
same,pIC50,IST-SL1,< 5.30
same,pIC50,J-RT3-T3-5,< 5.30
same,pIC50,K5,< 5.30
same,pIC50,KLE,< 5.30
same,pIC50,KP-N-YS,< 5.30
same,pIC50,KU812 cell line,< 5.30
same,pIC50,L-428,< 5.30
same,pIC50,LAMA-84,< 5.30
same,pIC50,LNCaP-Clone-FGC,< 5.30
same,pIC50,MMAC-SF,< 5.30
same,pIC50,MN-60,< 5.30
same,pIC50,MZ1-PC,< 5.30
same,pIC50,NB13,< 5.30
same,pIC50,NCI-H1355,< 5.30
same,pIC50,NCI-H1838,< 5.30
same,pIC50,NCI-H2126,< 5.30
same,pIC50,NCI-H226,< 5.30
same,pIC50,NCI-H510A,< 5.30
same,pIC50,NCI-H82,< 5.30
same,pIC50,SNU1,< 5.30
same,pIC50,NH-12,< 5.30
same,pIC50,NKM-1,< 5.30
same,pIC50,OMC-1,< 5.30
same,pIC50,ONS-76,< 5.30
same,pIC50,OVCAR-4,< 5.30
same,pIC50,QIMR-WIL,< 5.30
same,pIC50,RCC10RGB,< 5.30
same,pIC50,RPMI-8866,< 5.30
same,pIC50,SF-268,< 5.30
same,pIC50,SK-LMS-1,< 5.30
same,pIC50,SNB-75,< 5.30
same,pIC50,BB49-HNC,< 5.30
same,pIC50,Becker,< 5.30
same,pIC50,C2BBe1,< 5.30
same,pIC50,TE-6,< 5.30
same,pIC50,TGBC24TKB,< 5.30
same,pIC50,no-10,< 5.30
same,pIC50,CCRF-CEM,< 5.30
Cc1cn(-c2cc(NC(=O)c3ccc(C)c(Nc4nccc(-c5cccnc5)n4)c3)cc(C(F)(F)F)c2)cn1 [NILOTINIB],pIC50,COLO-824,< 5.70
same,pIC50,DEL,< 5.70
same,pIC50,DSH1,< 5.70
same,pIC50,DU-4475,< 5.70
same,pIC50,EW-13,< 5.70
same,pIC50,GCIY,< 5.70
same,pIC50,GI-1,< 5.70
same,pIC50,GOTO,< 5.70
same,pIC50,HC-1,< 5.70
same,pIC50,HCC2218,< 5.70
same,pIC50,IST-MES1,< 5.70
same,pIC50,IST-SL1,< 5.70
same,pIC50,J-RT3-T3-5,< 5.70
same,pIC50,K5,< 5.70
same,pIC50,KLE,< 5.70
same,pIC50,KP-N-YS,< 5.70
same,pIC50,KU812 cell line,8.61
same,pIC50,L-428,< 5.70
same,pIC50,LAMA-84,8.31
same,pIC50,LNCaP-Clone-FGC,< 5.70
same,pIC50,MMAC-SF,< 5.70
same,pIC50,MN-60,< 5.70
same,pIC50,MZ1-PC,< 5.70
same,pIC50,NB13,< 5.70
same,pIC50,NCI-H1355,< 5.70
same,pIC50,NCI-H1838,< 5.70
same,pIC50,NCI-H2126,< 5.70
same,pIC50,NCI-H226,< 5.70
same,pIC50,NCI-H510A,< 5.70
same,pIC50,NCI-H82,< 5.70
same,pIC50,SNU1,< 5.70
same,pIC50,NH-12,< 5.70
same,pIC50,NKM-1,6.05
same,pIC50,OMC-1,< 5.70
same,pIC50,ONS-76,< 5.70
same,pIC50,OVCAR-4,< 5.70
same,pIC50,QIMR-WIL,< 5.70
same,pIC50,RCC10RGB,< 5.70
same,pIC50,RPMI-8866,< 5.70
same,pIC50,SF-268,< 5.70
same,pIC50,SK-LMS-1,< 5.70
same,pIC50,SNB-75,< 5.70
same,pIC50,BB49-HNC,< 5.70
same,pIC50,Becker,< 5.70
same,pIC50,C2BBe1,< 5.70
same,pIC50,TE-6,< 5.70
same,pIC50,TGBC24TKB,< 5.70
same,pIC50,no-10,< 5.70
same,pIC50,CCRF-CEM,< 5.70
